# Reference: patent US8853230B2, “Inhibitors of JAK” (Portola Pharmaceuticals, Inc., priority 2009, dated 2014)
# Columns and labels:
# Type in all cases: biochemical
# JAK1 = molecular target: T1, JAK1 (Homo sapiens, UniProt P23458); test: Z'-LYTE kinase assay, JAK1 tyrosine phosphorylation activity; details: read-out: JAK 1 IC50
# T1 construct: 5 μl of catalytic domain recombinant Kinase enzyme+Tyr peptide substrate (Invitrogen, Calif.); purchased Invitrogen
# How it was run: (§1)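 Catalytic domain + Tyr6 peptide + ATP + cpd (1% DMSO), 1 h RT; development protease 1 h RT; FRET ex 400/em 445, 520 nm; % phosphorylation vs no-inhibitor; IC50 by 4-parameter logistic; duplicates.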
# JAK2 = molecular target: T2, JAK2 (Homo sapiens, UniProt O60674); test: Z'-LYTE kinase assay, JAK2 tyrosine phosphorylation activity
# T2 construct: 5 μl of catalytic domain recombinant Kinase enzyme+Tyr peptide substrate (Invitrogen, Calif.); purchased Invitrogen
# How it was run: as §1
# JAK3 = molecular target: T3, JAK3 (Homo sapiens, UniProt P52333); test: Z'-LYTE kinase assay, JAK3 tyrosine phosphorylation activity
# T3 construct: 5 μl of catalytic domain recombinant Kinase enzyme+Tyr peptide substrate (Invitrogen, Calif.); purchased Invitrogen
# How it was run: as §1
# Syk = Syk (Homo sapiens, UniProt P43405); test: Syk IC50 (Table 1; method not given)
# T2 sequence (O60674 849-1124 limits assumed): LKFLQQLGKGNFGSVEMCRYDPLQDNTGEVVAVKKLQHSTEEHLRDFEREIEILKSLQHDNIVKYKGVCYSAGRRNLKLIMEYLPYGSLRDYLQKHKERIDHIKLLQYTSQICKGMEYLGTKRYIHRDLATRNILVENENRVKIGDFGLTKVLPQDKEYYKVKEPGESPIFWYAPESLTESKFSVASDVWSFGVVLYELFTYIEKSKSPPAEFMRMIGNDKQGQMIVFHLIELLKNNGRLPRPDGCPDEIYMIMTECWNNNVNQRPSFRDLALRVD
# T1 sequence (P23458 875-1153 limits assumed): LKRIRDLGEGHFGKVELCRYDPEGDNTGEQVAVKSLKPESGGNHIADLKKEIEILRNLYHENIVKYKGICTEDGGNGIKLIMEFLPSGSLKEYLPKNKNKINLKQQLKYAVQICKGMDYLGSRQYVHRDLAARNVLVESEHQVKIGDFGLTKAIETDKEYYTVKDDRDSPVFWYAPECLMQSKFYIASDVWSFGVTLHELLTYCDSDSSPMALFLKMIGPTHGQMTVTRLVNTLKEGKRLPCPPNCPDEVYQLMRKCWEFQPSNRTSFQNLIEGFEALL
# T3 sequence (P52333 822-1111 limits assumed): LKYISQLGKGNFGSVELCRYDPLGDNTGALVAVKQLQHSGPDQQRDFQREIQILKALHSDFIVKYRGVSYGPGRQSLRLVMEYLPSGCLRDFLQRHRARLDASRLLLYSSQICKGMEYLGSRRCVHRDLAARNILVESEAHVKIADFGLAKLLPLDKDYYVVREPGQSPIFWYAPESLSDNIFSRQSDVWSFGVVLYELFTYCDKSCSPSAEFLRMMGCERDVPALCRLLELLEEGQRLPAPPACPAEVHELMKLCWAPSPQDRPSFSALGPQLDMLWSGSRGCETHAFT
Compound,IC50 (JAK1),IC50 (JAK2),IC50 (JAK3),IC50 (Syk)
"CC(=O)Nc1cccc(Nc2ncc(C(N)=O)c(NC3CCCC3)n2)c1 [Example 15, 2-(3-acetamidophenylamino)-4-(cyclopentylamino)pyrimidine-5-carboxamide]",10 to 100 nM,10 to 100 nM,1 to 10 nM,100 to 1000 nM
"CC(=O)Nc1cccc(Nc2ncc(C(N)=O)c(N[C@H](C)c3ccccc3)n2)c1 [Example 71, (R)-2-(3-acetamidophenylamino)-4-(1-phenylethylamino)pyrimidine-5-carboxamide]",100 to 1000 nM,10 to 100 nM,1 to 10 nM,> 1000 nM
"CC(=O)Nc1cccc(Nc2ncc(C(N)=O)c(NC[C@@H](C)c3ccccc3)n2)c1 [Example 3, (S)-2-(3-acetamidophenylamino)-4-(2-phenylpropylamino)pyrimidine-5-carboxamide]",10 to 100 nM,1 to 10 nM,1 to 10 nM,> 1000 nM
"CC(=O)Nc1cccc(Nc2ncc(C(N)=O)c(N[C@H]3CCC[C@@H]3O)n2)c1 (relative stereo) [Example 53, 2-(3-acetamidophenylamino)-4-((trans)-2-hydroxycyclopentylamino)pyrimidine-5-carboxamide]",10 to 100 nM,10 to 100 nM,1 to 10 nM,100 to 1000 nM
"COCC(=O)Nc1cccc(Nc2ncc(C(N)=O)c(NCc3ccc(Cl)c(Cl)c3)n2)c1 [Example 46, 4-(3,4-dichlorobenzylamino)-2-(3-(2-methoxyacetamido)phenylamino)pyrimidine-5-carboxamide]",> 1000 nM,> 1000 nM,100 to 1000 nM,> 1000 nM
"CC(=O)Nc1cccc(Nc2ncc(C(N)=O)c(NC3CCC3)n2)c1 [Example 1, 2-(3-acetamidophenylamino)-4-(cyclobutylamino)pyrimidine-5-carboxamide]",10 to 100 nM,10 to 100 nM,1 to 10 nM,100 to 1000 nM
"CC(=O)Nc1cccc(Nc2ncc(C(N)=O)c(NC3CC3c3ccccc3)n2)c1 (stereo not shown) [Example 51, 2-(3-acetamidophenylamino)-4-(2-phenylcyclopropylamino)pyrimidine-5-carboxamide]",100 to 1000 nM,10 to 100 nM,10 to 100 nM,100 to 1000 nM
"CC(=O)Nc1cccc(Nc2ncc(C(N)=O)c(NCC(N)=O)n2)c1 [Example 50, 2-(3-acetamidophenylamino)-4-(2-amino-2-oxoethylamino)pyrimidine-5-carboxamide]",100 to 1000 nM,100 to 1000 nM,100 to 1000 nM,> 1000 nM
"CNC(=O)CNc1nc(Nc2cccc(NC(C)=O)c2)ncc1C(N)=O [Example 72, 2-(3-acetamidophenylamino)-4-(2-(methylamino)-2-oxoethylamino)pyrimidine-5-carboxamide]",100 to 1000 nM,100 to 1000 nM,10 to 100 nM,> 1000 nM
"CCNC(=O)Nc1cccc(Nc2ncc(C(N)=O)c(NC3CCCC3)n2)c1 [Example 36, 4-(cyclopentylamino)-2-(3-(3-ethylureido)phenylamino)pyrimidine-5-carboxamide]",10 to 100 nM,10 to 100 nM,1 to 10 nM,100 to 1000 nM
"CCC(=O)Nc1cccc(Nc2ncc(C(N)=O)c(NC3CCCC3)n2)c1 [Example 21, 4-(cyclopentylamino)-2-(3-propionamidophenylamino)pyrimidine-5-carboxamide]",10 to 100 nM,10 to 100 nM,1 to 10 nM,100 to 1000 nM
"CC(=O)Nc1cccc(Nc2ncc(C(N)=O)c(NCCC(N)=O)n2)c1 [Example 61, 2-(3-acetamidophenylamino)-4-(3-amino-3-oxopropylamino)pyrimidine-5-carboxamide]",10 to 100 nM,100 to 1000 nM,10 to 100 nM,> 1000 nM
"CC(=O)Nc1cccc(Nc2ncc(C(N)=O)c(N[C@@H](C)c3ccccc3)n2)c1 [Example 64, (S)-2-(3-acetamidophenylamino)-4-(1-phenylethylamino)pyrimidine-5-carboxamide]",100 to 1000 nM,100 to 1000 nM,10 to 100 nM,> 1000 nM
"COCC(=O)Nc1cccc(Nc2ncc(C(N)=O)c(NCc3c(F)ccc(F)c3F)n2)c1 [Example 58, 2-(3-(2-methoxyacetamido)phenylamino)-4-(2,3,6-trifluorobenzylamino)pyrimidine-5-carboxamide]",10 to 100 nM,1 to 10 nM,1 to 10 nM,100 to 1000 nM
"CC(=O)Nc1cccc(Nc2ncc(C(N)=O)c(NCc3ccc(Cl)cc3)n2)c1 [Example 69, 2-(3-acetamidophenylamino)-4-(4-chlorobenzylamino)pyrimidine-5-carboxamide]",100 to 1000 nM,100 to 1000 nM,10 to 100 nM,> 1000 nM
"NC(=O)c1cnc(Nc2ccc(F)c(NC(=O)N3CCC3)c2)cc1NCc1cccc(F)c1 [Example 305, 6-(3-(azetidine-1-carboxamido)-4-fluorophenylamino)-4-(3-fluorobenzylamino)nicotinamide]",100 to 1000 nM,100 to 1000 nM,1 to 10 nM,> 1000 nM
"CC(=O)Nc1cccc(Nc2ncc(C(N)=O)c(NCC3CC3)n2)c1 [Example 12, 2-(3-acetamidophenylamino)-4-(cyclopropylmethylamino)pyrimidine-5-carboxamide]",,,,100 to 1000 nM

# Second part, the molecule after the results:
IC50 (JAK1),IC50 (JAK2),IC50 (JAK3),IC50 (Syk),Compound
10 to 100 nM,10 to 100 nM,1 to 10 nM,100 to 1000 nM,"CC(=O)Nc1cccc(Nc2ncc(C(N)=O)c(NCc3c(F)ccc(F)c3F)n2)c1 [Example 59, 2-(3-acetamidophenylamino)-4-(2,3,6-trifluorobenzylamino)pyrimidine-5-carboxamide]"
10 to 100 nM,10 to 100 nM,1 to 10 nM,100 to 1000 nM,"COC(=O)Nc1cccc(Nc2ncc(C(N)=O)c(NC3CCCC3)n2)c1 [Example 23, methyl 3-(5-carbamoyl-4-(cyclopentylamino)pyrimidin-2-ylamino)phenylcarbamate]"
> 1000 nM,100 to 1000 nM,100 to 1000 nM,> 1000 nM,"CC(=O)Nc1cccc(Nc2ncc(C(N)=O)c(N(C)Cc3ccccc3)n2)c1 [Example 54, 2-(3-acetamidophenylamino)-4-(benzyl(methyl)amino)pyrimidine-5-carboxamide]"
10 to 100 nM,10 to 100 nM,1 to 10 nM,100 to 1000 nM,"NC(=O)Nc1cccc(Nc2ncc(C(N)=O)c(NC3CCCC3)n2)c1 [Example 33, 4-(cyclopentylamino)-2-(3-ureidophenylamino)pyrimidine-5-carboxamide]"
> 1000 nM,100 to 1000 nM,100 to 1000 nM,> 1000 nM,"CC(=O)Nc1cccc(Nc2ncc(C(N)=O)c(NCc3ccc(Cl)c(Cl)c3)n2)c1 [Example 70, 2-(3-acetamidophenylamino)-4-(3,4-dichlorobenzylamino)pyrimidine-5-carboxamide]"
100 to 1000 nM,10 to 100 nM,10 to 100 nM,100 to 1000 nM,"CC(=O)Nc1cccc(Nc2ncc(C(N)=O)c(NCCc3ccccc3)n2)c1 [Example 56, 2-(3-acetamidophenylamino)-4-(phenethylamino)pyrimidine-5-carboxamide]"
10 to 100 nM,10 to 100 nM,10 to 100 nM,100 to 1000 nM,"CC(=O)Nc1cccc(Nc2ncc(C(N)=O)c(NCC#N)n2)c1 [Example 74, 2-(3-acetamidophenylamino)-4-(cyanomethylamino)pyrimidine-5-carboxamide]"
100 to 1000 nM,100 to 1000 nM,10 to 100 nM,> 1000 nM,"COCC(=O)Nc1cccc(Nc2ncc(C(N)=O)c(NCc3ccc(OC)cc3)n2)c1 [Example 44, 2-(3-(2-methoxyacetamido)phenylamino)-4-(4-methoxybenzylamino)pyrimidine-5-carboxamide]"
10 to 100 nM,10 to 100 nM,1 to 10 nM,100 to 1000 nM,"COCC(=O)Nc1cccc(Nc2ncc(C(N)=O)c(NC3CCCC3)n2)c1 [Example 22, 4-(cyclopentylamino)-2-(3-(2-methoxyacetamido)phenylamino)pyrimidine-5-carboxamide]"
> 1000 nM,100 to 1000 nM,10 to 100 nM,> 1000 nM,"COC(=O)Nc1cc(Nc2ncc(C(N)=O)c(NCC(F)(F)F)n2)ccc1Cl [Example 18, methyl 5-(5-carbamoyl-4-(2,2,2-trifluoroethylamino)pyrimidin-2-ylamino)-2-chlorophenylcarbamate]"
100 to 1000 nM,100 to 1000 nM,10 to 100 nM,> 1000 nM,"COc1ccc(CNc2nc(Nc3cccc(NC(C)=O)c3)ncc2C(N)=O)cc1 [Example 68, 2-(3-acetamidophenylamino)-4-(4-methoxybenzylamino)pyrimidine-5-carboxamide]"
10 to 100 nM,100 to 1000 nM,10 to 100 nM,100 to 1000 nM,"COC(=O)Nc1cc(Nc2ncc(C(N)=O)c(NC3CCCC3)n2)ccc1Cl [Example 25, methyl 5-(5-carbamoyl-4-(cyclopentylamino)pyrimidin-2-ylamino)-2-chlorophenylcarbamate]"
100 to 1000 nM,100 to 1000 nM,10 to 100 nM,> 1000 nM,"COCC(=O)Nc1cccc(Nc2ncc(C(N)=O)c(NCc3ccc(C)cc3)n2)c1 [Example 43, 2-(3-(2-methoxyacetamido)phenylamino)-4-(4-methylbenzylamino)pyrimidine-5-carboxamide]"
,,,100 to 1000 nM,"COCCCNc1nc(Nc2cccc(NC(C)=O)c2)ncc1C(N)=O [Example 16, 2-(3-acetamidophenylamino)-4-(3-methoxypropylamino)pyrimidine-5-carboxamide]"
